Laboratory results taken from PMC5761851, “Application of a phenotypic drug discovery strategy to identify biological and chemical starting points for inhibition of TSLP production in lung epithelial cells” (PLoS ONE, 2018).

Key:
Experiment in all cases: kinase selectivity panel
Assay type in all cases: biochemical
[1] = molecular target: T1, SAPK2a (Homo sapiens, UniProt Q16539); details: for inhibition at 10 µM: read-out: inhibition of p38α(SAPK2α); for remaining activity at 10 µM: read-out: percentage of control activity (POC), SAPK2a
T1 construct: purchased Eurofins Pharma Discovery Services (KinaseProfiler; Cerep BioPrint panel)
Protocol: (§1) Kinase selectivity was evaluated at Eurofins Pharma Discovery Services using a selection of 125 representative kinases tested at a concentration of 10 μM in duplicate (S3 Table). IC50 values for selected activities were further characterized at 9 duplicate concentrations. DNA-PK activity was determined at the SelectScreen® Biochemical kinase Profiling Service of Thermo Fisher Scientific.

[2] = molecular target: T2, EphA5 (Homo sapiens, UniProt P54756); details: read-out: percentage of control activity (POC), EphA5
T2 construct: purchased Eurofins Pharma Discovery Services (KinaseProfiler; Cerep BioPrint panel)
Protocol: as §1

[3] = molecular target: T3, MKK7β (Homo sapiens, UniProt O14733); details: read-out: percentage of control activity (POC), MKK7β
T3 construct: purchased Eurofins Pharma Discovery Services (KinaseProfiler; Cerep BioPrint panel)
T3 sequence (O14733 1-419): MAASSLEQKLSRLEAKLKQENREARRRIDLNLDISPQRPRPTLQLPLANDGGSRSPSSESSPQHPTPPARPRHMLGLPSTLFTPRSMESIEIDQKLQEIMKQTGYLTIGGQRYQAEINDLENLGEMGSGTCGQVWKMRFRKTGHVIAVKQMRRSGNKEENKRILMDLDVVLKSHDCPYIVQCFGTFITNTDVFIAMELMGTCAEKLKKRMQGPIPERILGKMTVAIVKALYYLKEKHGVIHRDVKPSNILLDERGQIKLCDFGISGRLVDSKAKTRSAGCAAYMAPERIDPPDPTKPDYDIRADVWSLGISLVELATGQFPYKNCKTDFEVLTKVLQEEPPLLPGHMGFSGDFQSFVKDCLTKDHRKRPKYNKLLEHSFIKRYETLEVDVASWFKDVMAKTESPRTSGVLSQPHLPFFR
Protocol: as §1

[4] = molecular target: T4, Aurora-A (Homo sapiens, UniProt O14965); details: read-out: percentage of control activity (POC), Aurora-A
T4 construct: purchased Eurofins Pharma Discovery Services (KinaseProfiler; Cerep BioPrint panel)
T4 sequence (O14965 1-403): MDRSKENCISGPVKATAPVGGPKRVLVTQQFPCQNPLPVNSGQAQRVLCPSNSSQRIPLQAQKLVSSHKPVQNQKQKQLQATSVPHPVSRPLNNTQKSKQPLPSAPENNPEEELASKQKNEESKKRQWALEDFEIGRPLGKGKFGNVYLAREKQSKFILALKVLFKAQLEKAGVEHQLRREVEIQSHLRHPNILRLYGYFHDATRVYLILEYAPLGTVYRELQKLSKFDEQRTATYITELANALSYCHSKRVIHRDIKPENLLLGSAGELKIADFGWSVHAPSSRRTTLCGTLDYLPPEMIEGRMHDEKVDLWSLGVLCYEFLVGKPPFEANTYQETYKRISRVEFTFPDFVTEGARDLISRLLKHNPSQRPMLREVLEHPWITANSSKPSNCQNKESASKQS
Protocol: as §1

[5] = molecular target: T5, MAPK1 (Homo sapiens, UniProt P27361); details: read-out: percentage of control activity (POC), MAPK1
T5 construct: purchased Eurofins Pharma Discovery Services (KinaseProfiler; Cerep BioPrint panel)
Protocol: as §1

[6] = molecular target: T6, PI3K (p120g) (Homo sapiens, UniProt P48736); details: for remaining activity at 10 µM: read-out: percentage of control activity (POC), PI3K (p120g)
T6 construct: Eurofins Pharma Discovery Services (contract assay service)
Protocol: as §1

[7] = molecular target: T7, GSK3α (Homo sapiens, UniProt P49840); details: read-out: percentage of control activity (POC), GSK3α
T7 construct: purchased Eurofins Pharma Discovery Services (KinaseProfiler; Cerep BioPrint panel)
Protocol: as §1

[8] = molecular target: T8, Met (Homo sapiens, UniProt P08581); details: read-out: percentage of control activity (POC), Met
T8 construct: purchased Eurofins Pharma Discovery Services (KinaseProfiler; Cerep BioPrint panel)
Protocol: as §1

[9] = molecular target: T9, CDK6/cyclinD3 (Homo sapiens, UniProt Q00534); details: read-out: percentage of control activity (POC), CDK6/cyclinD3
T9 construct: purchased Eurofins Pharma Discovery Services (KinaseProfiler; Cerep BioPrint panel)
Protocol: as §1

[10] = molecular target: T10, BRK (Homo sapiens, UniProt Q13882); details: read-out: percentage of control activity (POC), BRK
T10 construct: purchased Eurofins Pharma Discovery Services (KinaseProfiler; Cerep BioPrint panel)
Protocol: as §1

[11] = molecular target: T11, PTK5 (Homo sapiens, UniProt P42685); details: for remaining activity at 10 µM: read-out: percentage of control activity (POC), PTK5
T11 construct: purchased Eurofins Pharma Discovery Services (KinaseProfiler; Cerep BioPrint panel)
Protocol: as §1

[12] = molecular target: T12, IKKε (Homo sapiens, UniProt Q14164); details: read-out: percentage of control activity (POC), IKKε
T12 construct: purchased Eurofins Pharma Discovery Services (KinaseProfiler; Cerep BioPrint panel)
T12 sequence (Q14164 1-716): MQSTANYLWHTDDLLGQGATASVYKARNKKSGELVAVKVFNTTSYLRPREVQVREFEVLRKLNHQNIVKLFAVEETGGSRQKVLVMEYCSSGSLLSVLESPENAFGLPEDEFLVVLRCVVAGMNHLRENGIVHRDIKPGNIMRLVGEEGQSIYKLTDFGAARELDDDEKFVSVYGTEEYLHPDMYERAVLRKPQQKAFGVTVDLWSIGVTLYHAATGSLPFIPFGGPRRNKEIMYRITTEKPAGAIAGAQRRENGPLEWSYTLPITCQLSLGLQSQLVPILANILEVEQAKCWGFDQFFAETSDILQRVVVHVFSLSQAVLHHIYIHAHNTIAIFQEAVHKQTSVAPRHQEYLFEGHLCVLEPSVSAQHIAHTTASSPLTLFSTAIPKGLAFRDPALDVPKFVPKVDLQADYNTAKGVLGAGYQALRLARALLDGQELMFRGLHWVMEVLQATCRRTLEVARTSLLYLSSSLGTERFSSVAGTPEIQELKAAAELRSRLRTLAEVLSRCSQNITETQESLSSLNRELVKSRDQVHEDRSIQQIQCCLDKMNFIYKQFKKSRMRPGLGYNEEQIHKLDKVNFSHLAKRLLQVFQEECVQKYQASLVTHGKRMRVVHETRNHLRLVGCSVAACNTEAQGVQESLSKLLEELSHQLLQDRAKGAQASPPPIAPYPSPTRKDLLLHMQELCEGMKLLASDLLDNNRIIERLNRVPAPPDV
Protocol: as §1

T7 sequence (P49840 whole entry): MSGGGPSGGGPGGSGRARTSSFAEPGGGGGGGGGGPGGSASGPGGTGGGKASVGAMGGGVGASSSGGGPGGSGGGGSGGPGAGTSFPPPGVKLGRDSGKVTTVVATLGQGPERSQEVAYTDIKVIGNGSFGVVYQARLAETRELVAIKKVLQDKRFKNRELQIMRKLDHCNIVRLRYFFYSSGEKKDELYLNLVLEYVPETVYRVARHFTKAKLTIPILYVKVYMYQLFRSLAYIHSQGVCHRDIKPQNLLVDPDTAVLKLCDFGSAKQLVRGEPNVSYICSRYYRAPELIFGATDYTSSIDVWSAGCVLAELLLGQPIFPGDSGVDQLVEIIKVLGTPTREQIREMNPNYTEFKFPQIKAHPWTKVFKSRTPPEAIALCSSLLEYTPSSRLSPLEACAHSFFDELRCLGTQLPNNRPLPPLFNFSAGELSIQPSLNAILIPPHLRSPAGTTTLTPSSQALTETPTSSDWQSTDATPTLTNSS
T6 sequence (P48736 whole entry): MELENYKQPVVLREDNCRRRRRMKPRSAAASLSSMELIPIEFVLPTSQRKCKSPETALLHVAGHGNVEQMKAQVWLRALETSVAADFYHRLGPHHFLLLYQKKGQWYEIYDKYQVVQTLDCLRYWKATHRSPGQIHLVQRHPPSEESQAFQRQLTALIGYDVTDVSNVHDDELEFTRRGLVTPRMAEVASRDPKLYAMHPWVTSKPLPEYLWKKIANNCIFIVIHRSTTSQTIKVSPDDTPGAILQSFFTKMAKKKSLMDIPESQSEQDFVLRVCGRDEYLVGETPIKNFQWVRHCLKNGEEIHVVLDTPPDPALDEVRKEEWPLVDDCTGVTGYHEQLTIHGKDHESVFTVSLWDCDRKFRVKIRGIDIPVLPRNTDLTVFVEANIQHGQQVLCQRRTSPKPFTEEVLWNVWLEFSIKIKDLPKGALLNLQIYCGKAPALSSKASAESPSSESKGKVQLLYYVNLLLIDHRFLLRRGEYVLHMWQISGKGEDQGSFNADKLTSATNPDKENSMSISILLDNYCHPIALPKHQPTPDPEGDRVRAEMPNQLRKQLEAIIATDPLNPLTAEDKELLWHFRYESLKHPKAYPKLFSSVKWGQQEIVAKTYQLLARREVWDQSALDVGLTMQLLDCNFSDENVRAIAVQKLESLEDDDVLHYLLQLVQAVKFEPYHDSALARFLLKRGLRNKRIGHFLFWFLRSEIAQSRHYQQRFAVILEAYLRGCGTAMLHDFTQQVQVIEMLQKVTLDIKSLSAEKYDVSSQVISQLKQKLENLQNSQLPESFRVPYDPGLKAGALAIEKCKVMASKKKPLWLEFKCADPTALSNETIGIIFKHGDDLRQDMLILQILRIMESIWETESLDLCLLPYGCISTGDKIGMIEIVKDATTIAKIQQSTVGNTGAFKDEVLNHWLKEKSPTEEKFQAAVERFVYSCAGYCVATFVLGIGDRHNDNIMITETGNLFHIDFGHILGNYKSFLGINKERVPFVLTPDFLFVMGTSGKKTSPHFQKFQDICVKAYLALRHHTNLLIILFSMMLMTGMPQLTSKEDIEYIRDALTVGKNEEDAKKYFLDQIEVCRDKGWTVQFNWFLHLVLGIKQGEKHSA
T8 sequence (P08581 25-1390): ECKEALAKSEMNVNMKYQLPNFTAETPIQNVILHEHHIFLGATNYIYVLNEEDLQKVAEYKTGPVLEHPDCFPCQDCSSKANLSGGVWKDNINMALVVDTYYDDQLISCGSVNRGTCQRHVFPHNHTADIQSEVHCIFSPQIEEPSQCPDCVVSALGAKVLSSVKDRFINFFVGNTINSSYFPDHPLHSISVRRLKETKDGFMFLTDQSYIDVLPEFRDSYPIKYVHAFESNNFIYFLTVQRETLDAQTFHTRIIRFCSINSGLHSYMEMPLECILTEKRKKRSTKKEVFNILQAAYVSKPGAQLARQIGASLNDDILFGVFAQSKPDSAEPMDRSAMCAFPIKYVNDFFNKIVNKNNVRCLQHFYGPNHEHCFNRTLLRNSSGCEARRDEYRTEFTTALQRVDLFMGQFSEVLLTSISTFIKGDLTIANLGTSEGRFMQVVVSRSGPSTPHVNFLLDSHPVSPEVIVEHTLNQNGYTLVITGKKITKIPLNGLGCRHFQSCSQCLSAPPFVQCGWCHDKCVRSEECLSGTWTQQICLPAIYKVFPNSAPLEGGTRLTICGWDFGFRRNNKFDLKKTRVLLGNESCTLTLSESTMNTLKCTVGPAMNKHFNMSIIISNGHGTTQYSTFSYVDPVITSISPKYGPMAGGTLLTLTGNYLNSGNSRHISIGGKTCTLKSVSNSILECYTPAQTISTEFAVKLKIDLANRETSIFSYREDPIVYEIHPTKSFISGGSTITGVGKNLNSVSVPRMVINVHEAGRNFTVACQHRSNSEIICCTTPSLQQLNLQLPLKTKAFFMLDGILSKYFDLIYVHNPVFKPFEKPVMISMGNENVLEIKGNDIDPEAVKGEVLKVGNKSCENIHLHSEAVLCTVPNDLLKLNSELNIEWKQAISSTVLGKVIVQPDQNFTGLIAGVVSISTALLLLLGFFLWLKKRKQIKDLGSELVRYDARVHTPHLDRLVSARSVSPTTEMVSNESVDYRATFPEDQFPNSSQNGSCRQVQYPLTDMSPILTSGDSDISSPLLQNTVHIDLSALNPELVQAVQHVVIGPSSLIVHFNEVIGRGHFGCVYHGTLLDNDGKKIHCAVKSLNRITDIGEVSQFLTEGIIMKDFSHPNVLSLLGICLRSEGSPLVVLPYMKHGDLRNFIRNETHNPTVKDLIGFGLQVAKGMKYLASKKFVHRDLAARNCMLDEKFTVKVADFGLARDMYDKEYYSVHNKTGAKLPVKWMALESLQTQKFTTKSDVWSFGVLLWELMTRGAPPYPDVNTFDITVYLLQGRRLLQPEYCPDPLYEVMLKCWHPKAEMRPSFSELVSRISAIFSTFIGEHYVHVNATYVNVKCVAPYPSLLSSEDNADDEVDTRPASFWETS
T10 sequence (Q13882 whole entry): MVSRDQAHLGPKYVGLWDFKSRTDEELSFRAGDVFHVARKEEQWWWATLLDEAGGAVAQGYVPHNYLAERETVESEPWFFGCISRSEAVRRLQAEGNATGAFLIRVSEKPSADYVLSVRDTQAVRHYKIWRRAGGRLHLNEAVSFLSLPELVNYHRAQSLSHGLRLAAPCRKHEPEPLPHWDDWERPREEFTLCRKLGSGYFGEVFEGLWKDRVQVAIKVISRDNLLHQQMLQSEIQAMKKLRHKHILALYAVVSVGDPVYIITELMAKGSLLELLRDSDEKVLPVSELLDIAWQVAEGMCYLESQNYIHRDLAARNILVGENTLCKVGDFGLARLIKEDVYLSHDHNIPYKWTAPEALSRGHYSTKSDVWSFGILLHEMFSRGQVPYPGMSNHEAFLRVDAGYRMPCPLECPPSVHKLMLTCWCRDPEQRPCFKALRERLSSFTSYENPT
T5 sequence (P27361 whole entry): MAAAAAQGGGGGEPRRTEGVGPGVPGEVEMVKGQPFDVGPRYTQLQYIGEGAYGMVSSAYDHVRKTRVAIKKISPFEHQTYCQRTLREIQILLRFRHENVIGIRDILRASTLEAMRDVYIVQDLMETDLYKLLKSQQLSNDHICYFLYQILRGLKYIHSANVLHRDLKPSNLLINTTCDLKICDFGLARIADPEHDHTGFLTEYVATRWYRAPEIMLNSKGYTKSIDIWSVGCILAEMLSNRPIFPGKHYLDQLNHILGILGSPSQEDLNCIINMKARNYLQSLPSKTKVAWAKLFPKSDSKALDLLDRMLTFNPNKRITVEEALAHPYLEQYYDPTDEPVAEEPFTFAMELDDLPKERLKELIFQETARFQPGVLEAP
T2 sequence (P54756 25-1037): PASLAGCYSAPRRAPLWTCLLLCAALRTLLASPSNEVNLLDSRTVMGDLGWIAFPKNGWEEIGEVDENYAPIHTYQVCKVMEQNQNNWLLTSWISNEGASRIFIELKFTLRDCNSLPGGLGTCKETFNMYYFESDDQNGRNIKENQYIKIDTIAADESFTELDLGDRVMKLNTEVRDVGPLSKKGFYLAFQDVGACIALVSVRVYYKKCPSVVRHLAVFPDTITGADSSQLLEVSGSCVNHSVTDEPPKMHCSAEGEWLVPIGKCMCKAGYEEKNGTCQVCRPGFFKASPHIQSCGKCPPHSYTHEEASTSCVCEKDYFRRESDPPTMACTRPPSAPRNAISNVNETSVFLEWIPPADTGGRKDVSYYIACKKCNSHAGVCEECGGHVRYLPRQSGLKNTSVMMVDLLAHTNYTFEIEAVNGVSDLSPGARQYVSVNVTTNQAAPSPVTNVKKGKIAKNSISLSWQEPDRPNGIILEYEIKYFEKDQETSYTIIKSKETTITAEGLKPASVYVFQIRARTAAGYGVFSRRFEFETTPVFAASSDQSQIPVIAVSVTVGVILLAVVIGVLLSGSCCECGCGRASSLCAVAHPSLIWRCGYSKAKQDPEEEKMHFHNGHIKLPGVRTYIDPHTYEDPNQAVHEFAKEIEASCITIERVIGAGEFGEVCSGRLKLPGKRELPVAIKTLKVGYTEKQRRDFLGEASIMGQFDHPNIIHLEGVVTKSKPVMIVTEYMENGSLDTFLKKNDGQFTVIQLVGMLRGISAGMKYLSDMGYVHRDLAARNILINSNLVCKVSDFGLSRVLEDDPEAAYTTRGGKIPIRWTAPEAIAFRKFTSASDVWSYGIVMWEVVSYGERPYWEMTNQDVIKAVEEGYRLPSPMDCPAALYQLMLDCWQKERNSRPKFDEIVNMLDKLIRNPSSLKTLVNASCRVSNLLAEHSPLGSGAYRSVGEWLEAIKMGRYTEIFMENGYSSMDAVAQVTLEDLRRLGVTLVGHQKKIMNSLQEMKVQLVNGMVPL

SMILES | inhibition at 10 µM [1] | remaining activity at 10 µM [1] | remaining activity at 10 µM [2] | remaining activity at 10 µM [3] | remaining activity at 10 µM [4] | remaining activity at 10 µM [5] | remaining activity at 10 µM ([6]; 10 μM) | remaining activity at 10 µM [7] | remaining activity at 10 µM [8] | remaining activity at 10 µM [9] | remaining activity at 10 µM [10] | remaining activity at 10 µM [11] | remaining activity at 10 µM [12] | inhibition at 10 µM ([6]; 10 μM, read-out: inhibition of PI3K (p120γ)) | IC50 ([6]; biochemical dose response, duplicate, read-out: Inhibition of indicated activity (IC50, μM): PI3K (p120γ)) | inhibition at 10 µM [11]
CC(C)(C)N1CCC(c2cc(-c3ccc(F)cc3Cl)c3cc[n+]([O-])c(-c4c(Cl)cccc4Cl)c3n2)CC1 [compound 2] | ~100% | -1% | 95% | 110% | 112% | 105% | 92% | 107% | 83% | 102% | 98% | 97% | 101% | – | – | –
Cc1ccc(C(=O)NCC2CC2)cc1-c1ccc2c(c1)NC(=O)C21CCCC1 [compound 3] | ~100% | -2% | 99% | 116% | 96% | 88% | 85% | 95% | 86% | 97% | 103% | 56% | 102% | – | – | –
Cn1cc(-c2cccc(-c3nc(C(=O)NC4C5CC6CC4CC(O)(C6)C5)c(N)nc3N)c2)cn1 (stereo not drawn) [compound 4] | – | 91% | 93% | 101% | 89% | 96% | 33% | 76% | 87% | 93% | 71% | 54% | 96% | 67% | 4.78 µM | –
CS(=O)(=O)N1CCN(c2ccc(Nc3ncc(C(N)=O)c(NC4CC4)n3)cc2)CC1 [compound 5] | – | 89% | 56% | 7% | 2% | 34% | 86% | 40% | 45% | 23% | 39% | 31% | 0% | – | – | –
COc1c(NC(=O)c2ccc(C)c(-c3nnc4c(NCC(C)(C)C)nccn34)c2)cc(C(C)(C)C)cc1NS(C)(=O)=O [compound 7, reference compound] | ~100% | -1% | 65% | 112% | 110% | 85% | 86% | 103% | 109% | 100% | 98% | 4% | 100% | – | – | 96%
